Source: patent US20250179028A1, “ACRYLAMIDE COMPOUNDS” (NRG THERAPEUTICS LTD, priority 2022, published 2025)
Values after ≈ are worked out from the molar mass of the structure shown.

What was measured:
[1] = biological target: CYP2D6 (Homo sapiens (Human), UniProt P10635); test: Cytochrome P450 CYP2D6 inhibition in human liver microsomes; assay type: in vitro ADME; conditions: probe dextromethorphan 2 µM (dextrorphan formation); 1 uM test compound, human liver microsomes; average value from two experiments; negative values = no effective inhibition
Chain of CYP2D6 (P10635 whole entry): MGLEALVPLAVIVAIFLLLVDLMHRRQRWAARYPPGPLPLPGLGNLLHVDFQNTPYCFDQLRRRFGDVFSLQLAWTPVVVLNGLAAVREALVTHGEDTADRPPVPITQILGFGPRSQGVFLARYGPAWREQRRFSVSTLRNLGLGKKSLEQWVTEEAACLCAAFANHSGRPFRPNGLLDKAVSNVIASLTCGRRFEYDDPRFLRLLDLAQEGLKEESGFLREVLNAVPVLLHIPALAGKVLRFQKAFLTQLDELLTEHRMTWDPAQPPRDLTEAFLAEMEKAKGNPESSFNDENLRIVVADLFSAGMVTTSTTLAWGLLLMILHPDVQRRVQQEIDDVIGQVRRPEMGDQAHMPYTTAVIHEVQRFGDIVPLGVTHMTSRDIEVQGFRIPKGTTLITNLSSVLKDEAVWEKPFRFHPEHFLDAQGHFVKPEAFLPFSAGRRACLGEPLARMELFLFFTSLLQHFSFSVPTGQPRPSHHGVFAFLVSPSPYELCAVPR
In short: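 Human liver microsomes (0.2 mg/mL) with 2 μM dextromethorphan in 100 mM PBS, test compound at 1 μM or 0.1-30 μM, 15 min preincubation then NADPH-started reaction for 20 min at 37° C, in duplicate. Dextrorphan formation by UPLC-MS/MS; IC50 from % decrease versus uninhibited control.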

[2] = PBS and FaSSIF solubility; assay type: physicochemical; conditions: aqueous buffer, kinetic from dmso stock; PBS pH 7.4, 2 hr at 25° C.; read-out: Solubility PBS (pH 7.4)
In short: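 Solubility was measured from 10 mM DMSO stocks diluted into FaSSIF or PBS pH 7.4, in duplicate, then shaken at 1100 rpm for 2 hr at 25 °C. Filtrates were quantified by LC-MS/MS against an internal standard and a known-concentration standard.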

[3] = tested on: mPTP; test: mPTP activity (Ca2+ retention) assay in isolated rat liver mitochondria; assay type: biochemical; conditions: isolated rat liver mitochondria; average value from multiple experiments (n ≥ 2)
In short: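 Freshly isolated female Sprague Dawley rat liver mitochondria were energised with succinate and rotenone in pH 7.4 buffer with Fluo5N, then pre-incubated 10 min at RT with compound (30 μM to 1 nM final) before a 75 μM CaCl2 bolus. The IC50 used 10-min fluorescence, normalised to DMSO and 5 μM cyclosporin A.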

[4] = Microsomal clearance assay; assay type: in vitro ADME; conditions: rat liver microsomes; average value from two experiments
Description: The microsomal stability of test compounds was evaluated using rat liver microsomes (BiolVT) with and without the cofactors nicotinamide adenine dinucleotide phosphate (NADPH) and undine-diphosphate-glucuronic acid (UDPGA). Reactions were performed in a final volume of 250 μl pre-warmed (37° C.) 100 mM phosphate buffer containing 5 mM MgCl2, 0.025 mg/ml alamethicin, and 0.5 mg/ml rat liver microsomes. NADPH and UDPGA were included at 1 mM and 2 mM respectively, where appropriate. Reactions were started with the addition of 1 μM (final concentration) test compound. Verapamil was used as the positive control. Solutions were incubated in a water bath at 37° C. and aliquots collected at 0.5, 5, 15, 30 and 60 min. Reactions were stopped by the addition of 5 volumes of cold acetonitrile with internal standards (200 nM caffeine and 100 nM tolbutamide). Samples were centrifuged at 3220 g for 40 min. An aliquot of supernatant was diluted 1:1 In ultra-pure H2O, then used for LC-MS/MS analysis. Peak areas were determined from extracted ion chromatograms. The slope value, k, was determined by linear regression of the natural logarithm of the remaining percentage of the parent drug vs. incubation time curve. The in vitro half-life (in vitro t½) was determined from the slope value: in vitro t½=0.693/k. Conversion of the in vitro t½ (min) into the in vitro intrinsic clearance (in vitro CLint, in μL/min/mg protein) was done using the following equation (mean of duplicate determinations): […]

SMILES	inhibition at 20 min, 1 µM [1]	solubility at 2 h [2]	mPTP Rat liver pIC50 [3]	microsomal CLint at 1 µM [4]
CC1Cc2ccccc2C1NC(=O)/C=C/c1ccc2c(c1)NC(=O)C2 (stereo not drawn) [Example 21, (E)-N-(2-methyl-2,3-dihydro-1H-inden-1-yl)-3-(2-oxoindolin-6-yl)acrylamide]	0.91%	26 µM (≈ 8.64 µg/mL)	6.1	38 µL/min/mg
Cc1c(F)cccc1NC(=O)/C=C/c1cc(F)c2c(c1)NC(=O)C2 [Example 18, (E)-N-(3-fluoro-2-methylphenyl)-3-(4-fluoro-2-oxoindolin-6-yl)acrylamide]	1.2%	1.11 µM (≈ 0.364 µg/mL)	6.0	23 µL/min/mg
Cc1c(F)cccc1NC(=O)/C=C/c1ccc2nn[nH]c2c1 [Example 1, (E)-3-(1H-benzo[d][1,2,3]triazol-6-yl)-N-(3-fluoro-2-methylphenyl)acrylamide]	-2.11%	22.2 µM (≈ 6.58 µg/mL)	7.3	106 µL/min/mg
